One test deals with SW-620. Description: cells. Format: functional, cell-based. Conditions: Homo sapiens.
For test [1], the target named is Epidermal growth factor receptor (Homo sapiens, UniProt P00533).
Description: Inhibition of Epidermal Growth Factor Receptor (EGFR) autophosphorylation
In a further test the test system is A-431. Description: cells. Format: functional, cell-based. Conditions: Homo sapiens.
The target of test [2] is Receptor tyrosine-protein kinase erbB-2 (Homo sapiens, UniProt P04626).
Description: Inhibition of human epidermal growth factor receptor-2 autophosphorylation
For another test, the system named is SK-BR-3. The experiment in a line: cells. The format is functional, cell-based. The conditions noted are these: Homo sapiens.

Converted amounts (≈) assume the structure as drawn. Bounds are passed on as bounds.

Receptor tyrosine-protein kinase erbB-2, sequence (P04626 whole entry): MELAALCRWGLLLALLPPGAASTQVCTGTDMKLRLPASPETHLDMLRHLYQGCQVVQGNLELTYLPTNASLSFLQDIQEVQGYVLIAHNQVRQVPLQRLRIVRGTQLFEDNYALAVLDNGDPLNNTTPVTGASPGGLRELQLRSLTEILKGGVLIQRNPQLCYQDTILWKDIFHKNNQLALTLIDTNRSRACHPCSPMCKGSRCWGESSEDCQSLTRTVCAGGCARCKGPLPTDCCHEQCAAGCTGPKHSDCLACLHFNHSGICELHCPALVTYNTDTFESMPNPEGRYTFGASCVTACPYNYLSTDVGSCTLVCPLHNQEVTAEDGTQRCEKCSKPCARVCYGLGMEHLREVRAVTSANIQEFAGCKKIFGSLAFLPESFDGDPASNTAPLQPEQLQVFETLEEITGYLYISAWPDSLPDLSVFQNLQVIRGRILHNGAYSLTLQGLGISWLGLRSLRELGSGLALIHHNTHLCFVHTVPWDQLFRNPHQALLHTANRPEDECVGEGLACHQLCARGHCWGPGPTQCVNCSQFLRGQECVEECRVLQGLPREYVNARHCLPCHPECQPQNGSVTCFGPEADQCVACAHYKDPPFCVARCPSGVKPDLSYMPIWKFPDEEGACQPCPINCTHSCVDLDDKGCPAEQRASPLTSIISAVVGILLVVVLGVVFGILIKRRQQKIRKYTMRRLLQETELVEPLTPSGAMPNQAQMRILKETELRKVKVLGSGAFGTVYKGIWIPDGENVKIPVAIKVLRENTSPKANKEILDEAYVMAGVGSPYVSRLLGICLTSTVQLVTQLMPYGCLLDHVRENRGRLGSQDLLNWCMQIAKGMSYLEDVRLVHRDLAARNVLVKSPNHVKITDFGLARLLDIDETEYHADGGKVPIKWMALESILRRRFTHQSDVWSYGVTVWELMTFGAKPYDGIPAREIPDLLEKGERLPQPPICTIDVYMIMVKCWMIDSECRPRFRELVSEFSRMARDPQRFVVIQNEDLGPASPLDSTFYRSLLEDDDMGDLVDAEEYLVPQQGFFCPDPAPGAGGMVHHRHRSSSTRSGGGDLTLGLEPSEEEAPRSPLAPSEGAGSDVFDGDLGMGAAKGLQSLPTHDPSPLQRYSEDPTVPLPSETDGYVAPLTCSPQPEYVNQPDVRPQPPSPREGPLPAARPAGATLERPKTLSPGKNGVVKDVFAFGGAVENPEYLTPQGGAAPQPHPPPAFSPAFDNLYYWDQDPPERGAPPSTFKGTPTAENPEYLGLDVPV
Epidermal growth factor receptor, sequence (P00533 whole entry): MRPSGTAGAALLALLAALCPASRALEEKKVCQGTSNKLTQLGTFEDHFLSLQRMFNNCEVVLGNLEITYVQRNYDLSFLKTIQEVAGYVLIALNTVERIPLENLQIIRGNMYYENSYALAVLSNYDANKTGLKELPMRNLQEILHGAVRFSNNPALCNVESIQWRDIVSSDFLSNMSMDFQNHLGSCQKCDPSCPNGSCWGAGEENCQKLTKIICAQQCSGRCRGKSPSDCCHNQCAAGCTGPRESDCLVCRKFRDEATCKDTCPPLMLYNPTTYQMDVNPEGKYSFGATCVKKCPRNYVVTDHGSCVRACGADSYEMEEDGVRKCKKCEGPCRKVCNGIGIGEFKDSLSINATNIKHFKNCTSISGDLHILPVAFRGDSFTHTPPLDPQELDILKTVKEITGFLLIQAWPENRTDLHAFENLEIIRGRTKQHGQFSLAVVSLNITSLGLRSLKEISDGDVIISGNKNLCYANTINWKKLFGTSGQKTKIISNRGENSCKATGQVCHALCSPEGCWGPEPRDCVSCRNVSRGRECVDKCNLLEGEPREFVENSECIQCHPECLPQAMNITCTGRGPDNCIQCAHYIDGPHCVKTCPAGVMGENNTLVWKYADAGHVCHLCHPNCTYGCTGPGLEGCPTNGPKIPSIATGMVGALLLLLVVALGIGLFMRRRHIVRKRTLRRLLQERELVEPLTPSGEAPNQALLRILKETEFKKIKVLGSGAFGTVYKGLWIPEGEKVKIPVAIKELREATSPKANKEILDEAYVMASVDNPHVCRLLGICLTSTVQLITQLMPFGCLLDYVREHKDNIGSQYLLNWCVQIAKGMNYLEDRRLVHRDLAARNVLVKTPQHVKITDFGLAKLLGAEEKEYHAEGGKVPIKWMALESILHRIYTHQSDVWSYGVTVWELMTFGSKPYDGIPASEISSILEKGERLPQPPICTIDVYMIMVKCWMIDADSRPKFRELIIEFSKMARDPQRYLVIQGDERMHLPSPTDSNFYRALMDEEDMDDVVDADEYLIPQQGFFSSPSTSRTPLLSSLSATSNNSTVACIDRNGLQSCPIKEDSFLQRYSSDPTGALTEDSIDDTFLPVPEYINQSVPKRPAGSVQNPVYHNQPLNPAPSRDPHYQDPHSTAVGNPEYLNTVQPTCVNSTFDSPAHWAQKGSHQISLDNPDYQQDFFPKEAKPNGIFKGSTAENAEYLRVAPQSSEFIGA
Description for A-431: Inhibition of A431 cell proliferation
Description for SK-BR-3: Inhibition of SKBR-3 cell proliferation
Description for SW-620: Inhibition of SW-620 cell proliferation

As usually defined, the IC50 is the midpoint of a concentration-inhibition curve. As for `C#Cc1cccc(Nc2c(C#N)cnc3cc(OCCOC)c(OCCOC)cc23)c1`, the IC50 came out at 0.68 µg/mL (≈ 1.63 µM) in the test with SW-620; 850 nM in test [1]; 0.173 µg/mL (≈ 0.414 µM) in the test on A-431; 11800 nM in test [2]; 0.071 µg/mL (≈ 0.17 µM) in the test on SK-BR-3.

As to `C=CC(=O)Nc1cc2c(Nc3ccc(F)c(Cl)c3)c(C#N)cnc2cc1OCCCN1CCOCC1`, the IC50 was 0.77 µg/mL (≈ 1.51 µM) with SW-620; 80 nM in test [1]; 0.12 µg/mL (≈ 0.235 µM) in the test on A-431; 1690 nM in test [2]; 0.03 µg/mL (≈ 0.0588 µM) in the test with SK-BR-3.

With `COc1cc2ncc(C#N)c(Nc3ccc(F)c(Cl)c3)c2cc1OCCCN1CCOCC1`, the IC50 is greater than 5 µg/mL in the test on SW-620; 1040 nM in test [1]; 0.25 µg/mL (≈ 0.531 µM) with A-431; 14700 nM in test [2]; 0.332 µg/mL (≈ 0.705 µM) in the test with SK-BR-3.

`C=CC(=O)Nc1cc2c(Nc3ccc(F)c(Cl)c3)ncnc2cc1OCCCN1CCOCC1` [CANERTINIB]: the results for the concentration for half-maximal inhibition (IC50) in the test with SW-620, in the test on A-431 and in the test with SK-BR-3 were 1.45 µg/mL (≈ 2.98 µM), 0.083 µg/mL (≈ 0.171 µM) and 0.102 µg/mL (≈ 0.21 µM), respectively.

As for `CCOc1cc2ncc(C#N)c(Nc3ccc(F)c(Cl)c3)c2cc1NC(=O)/C=C/CN(C)C` [PELITINIB], the IC50 came to 0.317 µg/mL (≈ 0.677 µM) in the test on SW-620, 0.03 µg/mL (≈ 0.0641 µM) with A-431, 1230 nM in test [2] and 0.007 µg/mL (≈ 0.015 µM) with SK-BR-3.

The record behind these values is ChEMBL document CHEMBL1135208, “Syntheses and EGFR and HER-2 kinase inhibitory activities of 4-anilinoquinoline-3-carbonitriles: analogues of three important 4-anilinoquinazolines currently undergoing clinical evaluation as therapeutic antitumor agents” (Bioorg Med Chem Lett, 2002).
